Values quoted from earlier work in patent publication US6586473B1, “Topical drug delivery composition and method” (Medicis Pharmaceutical Corporation, priority 1989, dated 2003).

Test system: photoaged skin

- dermatitis as a result of treatment (0.1% tretinoin cream, topical): most patients experience dermatitis
SMILES: CC1=C(/C=C/C(C)=C/C=C/C(C)=C/C(=O)O)C(C)(C)CCC1 [tretinoin, all trans-retinoic acid]
- effects of photoaging (wrinkling, sallowness, roughness, mottled pigmentation) (0.1% cream daily for sixteen weeks): can improve the effects of photoaging
- duration of initial dermatitis (xerosis, peeling, subjective irritation) (0.1% tretinoin cream, topical): two weeks to three months
